Source: patent publication EP0339358B1, “Pyrazolopyridine type mevalonolactones” (NISSAN CHEMICAL INDUSTRIES LTD., priority 1988, dated 1989)

Legend:
Hep G2 cells = molecular target: T1, Hep G2 cells (Homo sapiens, UniProt P04035); test: Test B-1: Inhibition of cholesterol biosynthesis in culture cells ([2-14C]sodium acetate added at 0 hr after addition of compounds); type: cell-based; settings: HepG2, concentration of 1.0 x 10⁻⁷ mol/ℓ, read-out: Inhibitory activities %
T1 sequence (P04035 1-888): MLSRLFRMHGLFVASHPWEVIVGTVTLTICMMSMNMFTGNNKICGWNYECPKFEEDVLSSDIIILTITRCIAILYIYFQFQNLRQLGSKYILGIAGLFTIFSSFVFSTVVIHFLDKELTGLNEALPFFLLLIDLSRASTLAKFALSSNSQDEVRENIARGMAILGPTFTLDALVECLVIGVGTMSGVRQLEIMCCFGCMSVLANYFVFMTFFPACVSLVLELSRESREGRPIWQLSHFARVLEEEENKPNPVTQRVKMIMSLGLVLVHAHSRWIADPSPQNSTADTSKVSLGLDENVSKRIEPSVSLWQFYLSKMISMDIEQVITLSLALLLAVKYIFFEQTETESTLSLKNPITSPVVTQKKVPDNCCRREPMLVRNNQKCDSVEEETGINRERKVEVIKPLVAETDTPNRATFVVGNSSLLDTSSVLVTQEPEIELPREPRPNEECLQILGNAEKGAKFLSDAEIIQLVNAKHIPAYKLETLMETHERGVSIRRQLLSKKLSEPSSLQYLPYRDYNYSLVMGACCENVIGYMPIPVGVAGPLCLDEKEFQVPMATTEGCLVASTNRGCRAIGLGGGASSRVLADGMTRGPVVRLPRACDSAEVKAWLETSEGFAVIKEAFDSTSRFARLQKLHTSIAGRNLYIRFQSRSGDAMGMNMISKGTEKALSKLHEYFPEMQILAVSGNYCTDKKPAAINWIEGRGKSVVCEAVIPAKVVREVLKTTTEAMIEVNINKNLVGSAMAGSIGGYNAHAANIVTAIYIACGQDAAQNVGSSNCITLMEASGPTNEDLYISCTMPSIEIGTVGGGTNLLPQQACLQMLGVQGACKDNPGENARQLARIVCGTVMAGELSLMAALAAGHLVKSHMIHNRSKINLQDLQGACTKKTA
Method: Hep G2 cells at over 5th passage were seeded to 12 well plates and incubated with Dulbecco's modified Eagle (DME) medium containing 10% of fetal bovine serum (FBS) at 37°C, 5% CO₂ until cells were confluent for about 7 days. Cells were exposed to the DME medium contaiing 5% of lipoprotein deficient serum (LpDS) prepared by ultracentrifugation method for over 24 hours. Medium was changed to 0.5 ml of fresh 5% LpDS containing DME before assay and 10 »l of test compound solution dissolved in water or DMSO were added. 0.2 »Ci of [2-¹⁴C]sodium acetate (20 »l) was added at 0 hr(B-1) or 4 hrs(B-2) after addition of compounds. After 4 hrs further incubation with [2-¹⁴C]sodium acetate, medium was removed and cells were washed with phosphate buffered saline (PBS) chilled at 4°C. Cells were scraped with rubber policeman and collected to tubes with PBS and digested with 0.2 ml of 0.5 N KOH at 37°C. Aliquot of digestion was used for protein analysis and remaining was saponified with 1 ml of 15% EtOH-KOH at 75°C for 1 hour. Nonsaponifiable lipids were extracted with petroleum ether and ¹⁴C radioactivity was counted. Counts were revised by cell protein and indicated with DPM/mg protein. Inhibitory activity of compounds was indicated with IC50.

Test D: Acute toxicity = settings: mouse, in vivo, po, 1000 mg/kg; orally administered 1,000 mg/kg, 0.5% CMC suspension; mortality after seven days; group of three mice
Method: A 0.5% CMC suspension of a test compound was orally administered to ICR male mice (group of three mice). The acute toxicity was determined based on the mortality after seven days. With compound I-5-1, I-5-2, I-5-4, I-5-7, I-5-10, I-5-11, I-5-12, I-5-14 and I-5-15 of the present invention, the mortality was 0% even when they were orally administered in an amount of 1,000 mg/kg, respectively.

cholesterol biosynthesis = test: Test C: Inhibition of cholesterol biosynthesis in vivo; parameters: species or system Male Sprague-Dawley rats; settings: oral administration of 0.2 mg/kg; relative to the measured value of the control group; serum nonsaponifiable lipids
Method: Male Sprague-Dawley rats weighing about 150 g were fed normal Purina chow diet and water ad libitum, and exposed to 12 hours light/12 hours dark lighting pattern (2:00 PM - 2:00 AM dark) prior to use for in vivo inhibition test of cholesterol biosynthesis. Animals were separated groups consisting of five rats as to be average mean body weight in each groups. Test compounds at dosage of 0.02-0.2 mg/kg body weight (0.4 ml/100 g body weight), were dissolved in water or suspended in 0.5% methyl cellulose and orally administered at 2-3 hours before mid-dark (8:00 PM), while cholesterol biosynthesis reaches to maximum in rats. As control, rats were orally administered only water or vehicle. At 90 minutes after sample administration, rats were injected intraperitoneally with 10 »Ci of [2-¹⁴C]sodium acetate at volume of 0.2 ml per one. 2 Hours later, blood samples were obtained and serum were separated immediately. Total lipids were extracted according to the method of Folch et al. and saponified with EtOH-KOH. Nonsaponifiable lipids were extracted with petroleum ether and radio activity incorporated into nonsaponifiable lipids was counted.
Inhibitory activity was indicated as percent decrease of counts in testing groups (DPM/2 ml serum/2 hours) from that in control group.

Structure (SMILES)	inhibition at 0.1 µM (Hep G2 cells) [%]	mortality at 168 h (Test D: Acute toxicity) [%]	percent decrease of counts (cholesterol biosynthesis) [%]
Cc1c2c(-c3ccc(F)cc3)c(/C=C/C(O)CC(O)CC(=O)O)c(C(C)C)nc2nn1-c1ccccc1 (stereo not shown) [Compound I-5-3]	36.3	–	–
CC(C)(C)n1nc(C2CC2)c2c(-c3ccc(F)cc3)c(/C=C/C(O)CC(O)CC(=O)O)c(C3CC3)nc21 (stereo not shown) [Compound I-5-16]	49	–	–
Cc1nn(Cc2ccccc2)c2nc(C(C)C)c(/C=C/C(O)CC(O)CC(=O)O)c(-c3ccc(F)cc3)c12 (stereo not shown) [Compound I-5-10]	–	0	–
Cc1nn(C)c2nc(C3CC3)c(/C=C/C(O)CC(O)CC(=O)O)c(-c3ccc(F)cc3)c12 (stereo not shown) [Compound I-5-5]	78.2	–	49
Cc1nn(C)c2nc(C(C)C)c(/C=C/C(O)CC(O)CC(=O)O)c(-c3ccc(F)cc3)c12 (stereo not shown) [Compound I-5-1, Sodium (E)-7-[4′-(4˝-fluorophenyl)-1′,3′-dimethyl-6′-(1˝-methylethyl)pyrazolo[3,4-b]pyridin-5#MIN#-yl]-3,5-dihydroxyhept-6-enoate]	–	0	–
Cc1nn(C(C)(C)C)c2nc(C(C)C)c(/C=C/C(O)CC(O)CC(=O)O)c(-c3ccc(F)cc3)c12 (stereo not shown) [Compound I-5-7]	–	0	52
COc1ccc(-n2nc(C)c3c(-c4ccc(F)cc4)c(/C=C/C(O)CC(O)CC(=O)O)c(C(C)C)nc32)cc1 (stereo not shown) [Compound I-5-13]	55.5	–	–
Cc1nn(-c2ccccc2)c2nc(C(C)C)c(/C=C/C(O)CC(O)CC(=O)O)c(-c3ccc(F)cc3)c12 (stereo not shown) [Compound I-5-2]	–	0	–
CC(C)c1nc2c(c(-c3ccc(Cl)cc3)nn2C)c(-c2ccc(F)cc2)c1/C=C/C(O)CC(O)CC(=O)O (stereo not shown) [Compound I-5-11]	58.8	0	–
CC(C)c1nc2c(c(C3CC3)nn2-c2ccccc2)c(-c2ccc(F)cc2)c1/C=C/C(O)CC(O)CC(=O)O (stereo not shown) [Compound I-5-12]	47.3	0	–
Cn1nc(-c2ccccc2)c2c(-c3ccc(F)cc3)c(/C=C/C(O)CC(O)CC(=O)O)c(C3CC3)nc21 (stereo not shown) [Compound I-5-14]	–	0	–
CC(C)c1nc2c(c(-c3ccccc3)nn2C)c(-c2ccc(F)cc2)c1/C=C/C(O)CC(O)CC(=O)O (stereo not shown) [Compound I-5-4]	–	0	53
CCC(C)C(=O)OC1CC(O)C=C2C=CC(C)C(CCC(O)CC(O)CC(=O)O)C21 (stereo not shown) [CS-514, reference compound]	–	–	39
CC(C)c1nc2c(c(C3CC3)nn2C)c(-c2ccc(F)cc2)c1/C=C/C(O)CC(O)CC(=O)O (stereo not shown) [Compound I-5-9]	55.3	–	–
Cc1nn(C(C)(C)C)c2nc(C3CC3)c(/C=C/C(O)CC(O)CC(=O)O)c(-c3ccc(F)cc3)c12 (stereo not shown) [Compound I-5-15]	–	0	–
CC(C)(C)n1nc(-c2ccccc2)c2c(-c3ccc(F)cc3)c(/C=C/C(O)CC(O)CC(=O)O)c(C3CC3)nc21 (stereo not shown) [Compound I-5-17]	36	–	–
CC(C)c1nc2c(cnn2-c2ccccc2)c(-c2ccc(F)cc2)c1/C=C/C(O)CC(O)CC(=O)O (stereo not shown) [Compound I-5-6]	53.3	–	–
